We go through three molecules from patent US9204639B2, “Pesticide preparation and process for producing the same” (BAYER INTELLECTUAL PROPERTY GMBH, priority 2011, dated 2015).

Data set [1] is classed as physicochemical. The procedure:
To 31.0 g of tefuryltrione and 11.5 g of diphenylamine (equivalent mol to tefuryltrione), 10 mL of toluene was added and refluxed under heating at 90° C. for 1 hour. […] The melting point of the obtained compound was measured using a DSC (Differential Scanning calorimetry) and compared with those of the starting materials (Table 1).
The solubilities of the pesticide active ingredients in toluene and a toluene/isooctane mixture liquid (80/20, v/v) at room temperature were determined (Table 2).

The conditions of data set [2]: cited from earlier work.

Converted amounts (≈) assume the structure as drawn.

In the case of `CS(=O)(=O)c1ccc(C(=O)C2C(=O)CCCC2=O)c(Cl)c1COCC1CCCO1` (stereo not shown) [Tefuryltrione, tefuryltrione], in data set [1], the “Solubility, Toluene” value came out at 97.8 mg/mL (≈ 221 mM) and the “Solubility, Toluene/isooctane mixture liquid (80/20, v/v)” value came to 49.4 mg/mL (≈ 112 mM).
With `c1ccc(-c2ccccc2)cc1` [biphenyl], the Water solubility in data set [2] is listed as 7 ppm.
In the case of `c1ccc(C(c2ccccc2)c2ccccc2)cc1` [triphenylmethane], in data set [2], the “Water solubility (in words)” value was “water insoluble”.
